Values after ≈ are worked out from the molar mass of the structure shown.
Assays:
[1] = organism: Sus scrofa; assay: Ratio of the concentration leading to a 50% inhibition of the rate of pig brain microtubule disassembly to that of taxol (0.4 uM) was determined; assay type: functional
[2] = Ratio of the concentration of compound leading to a 50% inhibition of the rate of pig brain microtubule disassembly to that of compound 13a was determined; assay type: functional
[3] = system: P388; assay: The concentration required to 50% inhibition of the P388 leukemic cell proliferation; assay type: functional, cell-based; details: Mus musculus
[4] = Cytotoxicity was measured as ratio of its IC50 value to that of compound 13a; assay type: functional

SMILES | Ratio [1] | Ratio [2] | IC50 [3] [µg/mL] | Ratio [4]
CC(=O)O[C@H]1C(=O)[C@@]2(C)[C@H]([C@H](OC(=O)c3ccccc3)[C@]3(O)C[C@H](OC(=O)[C@H](NC(=O)c4ccccc4)[C@@H](O)c4ccccc4)C(C)=C1C3(C)C)[C@]1(OC(C)=O)CO[C@@H]1C[C@@H]2O | 10 | 20 | 6 (≈ 7.03 µM) | 46
CC(=O)O[C@@]12CO[C@@H]1C[C@H](O)[C@@]1(C)C(=O)[C@H](O)C3=C(C)[C@@H](OC(=O)C(O)C(NC(=O)c4ccc(S(=O)(=O)O)cc4)c4ccccc4)C[C@@](O)([C@@H](OC(=O)c4ccccc4)[C@H]21)C3(C)C (stereo partly specified) | 5.5 | 11 | > 4 | >31
CC(=O)O[C@@]12CO[C@@H]1C[C@H](O)[C@@]1(C)C(=O)[C@H](O)C3=C(C)[C@@H](OC(=O)C(NC(=O)OC(C)(C)C)C(O)c4ccccc4)C[C@@](O)([C@@H](OC(=O)c4ccccc4)[C@H]21)C3(C)C (stereo partly specified) | 10 | 20 | 4 (≈ 4.95 µM) | 31
CC(=O)O[C@@]12CO[C@@H]1C[C@H](OC(=O)C(N)Cc1ccccc1)[C@@]1(C)C(=O)[C@H](O)C3=C(C)[C@@H](OC(=O)C(O)C(NC(=O)OC(C)(C)C)c4ccccc4)C[C@@](O)([C@@H](OC(=O)c4ccccc4)[C@H]21)C3(C)C (stereo partly specified) | 1 | 2 | 0.12 (≈ 0.126 µM) | 1
